Laboratory results reported in patent US9763996B2, “Polymyxin derivative and uses thereof” (Northern Antibiotics Ltd., priority 2015, dated 2017).
In brackets after ≈: the same amount, converted by molar mass. Entries after “also recorded” stand apart in the source; their conditions may differ. Read-outs that look alike come from different tables or passages of the source. Where a SMILES comes first, the peptide text is derived from it. Bridges are numbered along the chain shown (N, C = ends). [ ]: non-standard residue; d: D form. The star is where a group is joined. Octanoyl = CCCCCCCC(=O)*; Dab = NCC[C@H](N)C(=O)O

Key:
[1] = tested on: P. aeruginosa; test: Synergy studies with rifampin; assay type: cell-based, Pseudomonas aeruginosa; conditions: against P. aeruginosa
Experimental: Synergy studies were performed by using polymyxin derivatives in combination with rifampin, a model compound for such antibacterial agents that the intact outer membrane of Gram-negative bacteria acts as a permeability barrier.

[2] = tested on: K. pneumoniae ATCC 43816; conditions: ATCC 43816
[3] = 7-day IV infusion toxicity (nephrotoxicity) study in cynomolgus monkeys
Experimental: In vivo toxicity and toxicokinetic studies were performed by using cynomolgus monkeys. The laboratory that performed the animal studies is accredited by the Association for Assessment and Accreditation of Laboratory Animal Care (AAALAC), has an Animal Welfare Assurance issued by the Office of Laboratory Animal Welfare (OLAW), is registered with the United States Department of Agriculture (USDA), and has an Institutional Animal Care and Use Committee (IACUC) responsible for compliance with applicable laws and regulations concerning the humane care and use of laboratory animals.
Naïve female cynomolgus monkeys were acclimatized to study room for 28 days during which each animal was implanted with a permanent indwelling femoral catheter to permit continuous intravenous infusions. The animals were allowed surgical recovery period of at least 2 weeks before initiating dosing.
Polymyxin B sulfate was from Sigma-Aldrich (catalogue number P0972, lot number BCBF8382V). On each day of use, appropriate quantities of NAB739, NAB815 or polymyxin B were weighed and dissolved in appropriate volumes of sterile saline to prepare a stock solution for each test article and positive control. A correction factor was used in the stock solution preparation to account for both the purity and sulfate content in each test article. Accordingly, the dose (such as 36 mg/kg/d) refers to the dose of the pure peptide as its free base form, not as its sulfate salt.
The doses were the following: polymyxin B 18 mg/kg/d (Group 1), polymyxin B 24 mg/kg/d (Group 2), NAB739 24 mg/kg/d (Group 3), NAB739 36 mg/kg/d (Group 4), NAB815 24 mg/kg/d (Group 5), NAB815 36 mg/kg/d (Group 6). Three animals were included in each study groups.
(§1) For seven days, the animals were dosed by intravenous (IV) infusion three times daily (TID) at a dose volume of 10 mL/kg for 1 hour (±10 minutes), 8±0.5 hours apart. The day of initial dose administration was designated study Day 1, with subsequent days consecutively numbered. Days prior to the initial dose administration were consecutively numbered with the final day of acclimation referenced as Day −1.
(§2) The following parameters were evaluated at designed intervals: clinical observations, body weights, clinical pathology (hematology, coagulation, serum chemistry, urinalysis including urine sediments and urine chemistry), toxicokinetics (plasma and urine) and anatomic pathology (kidney). In cases of animals sacrificed on an unscheduled basis, samples were taken on the day of the sacrifice.
On the day of necropsy, animals were sedated with ketamine, weighed, and anesthetized with an intravenous injection of a commercial pentobarbital and phenytoin solution, followed by exsanguinations.
At necropsy, gross observations and organ weights were recorded, and specific tissues were collected. Histopathology was conducted on sections of kidney stained with hematoxylin and eosin (H&E).
The figures also show Urine N-acetyl-β-D-glucosaminidase/urine creatinine ratio (U-NAG/Crea; FIG. 3) and Urine Gamma Glutamyltransferase/urine creatinine ratio (U-GGT/Crea; FIG. 4), both urine biomarkers for kidney injury, in those animals. S-Crea and U-Crea were measured by using an Olympus Analyzer (OA) and the modified Jaffe method, S-BUN by using OA and urease/L-glutamate dehydrogenase. U-NAG was measured by using OA/enzymatic, and U-GGT by using OA and glutamyl-carboxy-p-nitroanilide IFCC.
The presence of the following nephro-pathological parameters was recorded in each animal: tubular basophilia (re-generation), tubular degeneration/necrosis, infiltration (by mononuclear and/or mixed inflammatory cells), tubular dilatation, and tubular casts.

[4] = tested on: P. aeruginosa JMI 7445; conditions: JMI 7445
[5] = tested on: A. baumannii CMI 417; conditions: alone; A. baumannii CMI 417 (polymyxin-nonsusceptible)
[6] = tested on: E. coli JMI 3328; conditions: JMI 3328
[7] = tested on: K. pneumoniae JMI 27072; conditions: JMI 27072
[8] = tested on: E. coli ATCC 25922; conditions: ATCC 25922
[9] = tested on: E. coli JMI 109; conditions: JMI 109
[10] = Toxicokinetics (plasma and urine) in cynomolgus monkeys; conditions: cynomolgus monkey, in vivo; for AUC: plasma
Experimental: as §1, §2
Plasma and urine concentrations for toxicokinetic (TK) studies were determined by using liquid chromatograph interfaced with a mass spectrometer after precipitation of proteins. A sample (100 μL) was mixed with internal standard solution in water:formic acid (99:1 v/v; […]). Then, 600 μL of 100:1 acetonitrile:formic acid was added. The plates were centrifuged at 3200 rpm for 5 minutes. Using a Tomtec Quadra96, a 450 μL aliquot was transferred to a new 96-well plate and dried under nitrogen at 40° C. Then, 200 μL of water:methanol:formic acid (85:15:1 1 v/v) was added and the plate sealed for LC-MS/MS injection. LC-MS system consisted of Waters Acquity liquid chromatograph interfaced with a Thermo Scientific TSQ Quantitative triple quadrupole MS with ionization in the positive ion mode. Each sample (20 μL) was injected onto a Waters Acquity BEH Shield RP18 column (2.1×50 mm; 1.7 μm) equilibrated at 50° C. Mobile Phase A was 85:15:1 v/v water:methanol:formic acid. Mobile Phase B was 50:50:1 v/v acetonitrile:methanol:formic acid.
Peak area ratios from the calibration standard responses were regressed using a (1/concentration^2) linear fit for polymyxin B using colistin as the internal standard. For NAB739 and NAB815, peak areas from the calibration standard responses were regressed using a (1/concentration^2) quadratic fit (without the use of an internal standard).
The regression models were chosen based upon the behavior of the analytes across the concentration range used during development.
Toxicokinetic analysis was performed by using WinNonlin Phoenix version 6.3 software (Pharsight, Cary, N.C.). For plasma TK, noncompartmental IV infusion model was used.
In the cynomolgus monkey studies described in Example 3, where the peptides were administered as a 1-hour intravenous infusion three times daily, plasma and urine levels of the peptides were determined.

[11] = tested on: A. baumannii ATCC 19606; conditions: ATCC 19606
[12] = tested on: A. baumannii CMI 417; test: microbe, parasite or virus in culture; conditions: Acinetobacter baumannii, CMI417
[13] = tested on: K. pneumoniae ATCC 43816; test: microbe, parasite or virus in culture; conditions: Klebsiella pneumoniae, ATCC43816
[14] = tested on: K. pneumoniae JMI 27072; test: microbe, parasite or virus in culture; conditions: Klebsiella pneumoniae, JMI27072
[15] = tested on: E. coli JMI 3328; test: microbe, parasite or virus in culture; conditions: Escherichia coli, JMI3328
[16] = tested on: A. baumannii ATCC 19606; test: microbe, parasite or virus in culture; conditions: Acinetobacter baumannii, ATCC19606
[17] = tested on: E. coli JMI 109; test: microbe, parasite or virus in culture; conditions: Escherichia coli, JMI109
[18] = tested on: K. pneumoniae JMI 27068; test: microbe, parasite or virus in culture; conditions: Klebsiella pneumoniae, JMI27068
[19] = tested on: P. aeruginosa ATCC 27853; test: MIC assay (CLSI broth microdilution; checkerboard with rifampin); conditions: Pseudomonas aeruginosa, ATCC27853
[20] = tested on: P. aeruginosa JMI 7445; test: microbe, parasite or virus in culture; conditions: Pseudomonas aeruginosa, JMI7445
[21] = tested on: E. coli ATCC 25922; test: microbe, parasite or virus in culture; conditions: Escherichia coli, ATCC25922
[22] = tested on: A. baumannii JMI 48125; test: microbe, parasite or virus in culture; conditions: Acinetobacter baumannii, JMI48125

With `CCCCCCCC(=O)N[C@H](C(=O)N[C@H](CO)C(=O)N[C@H]1CCNC(=O)[C@H]([C@@H](C)O)NC(=O)[C@H](CCN)NC(=O)[C@H](CCN)NC(=O)[C@H](CC(C)C)NC(=O)[C@@H](Cc2ccccc2)NC(=O)[C@H](CCN)NC1=O)[C@@H](C)O` [NAB739, octanoyl-Thr-DSer-[cyclo-α,γDab-αDab-DPhe-Leu-αDab-αDab-Thr]] (Octanoyl-T[dS][Dab][Dab][dF]L[Dab][Dab]T; lactam 3-C) the “synergistic activity with rifampin” value [1] was “lacked any notable synergistic activity with rifampin”, the MIC [2] was 4 µg/mL (≈ 3.72 µM) and the “kidney injury markers (S-BUN, S-Crea, U-NAG/Crea, U-GGT/Crea)” value ([3]; 36 mg/kg/d IV TID 7 days) was “all the four markers were significantly elevated; also recorded: both urine biomarkers were remarkably elevated”. For the same molecule, the “unscheduled necropsy / euthanized due to severe nephrotoxic effects” value ([3]; 36 mg/kg/d IV TID 7 days, 3 animals per group) was “One animal receiving NAB739 at 36 mg/kg/d had to be euthanized; also recorded: on Day 5 for one animal in the NAB739 group”, the “kidney histopathology findings (grade of nephro-pathological parameters)” value ([3]; 36 mg/kg/d IV TID, H&E kidney sections, per animal(s)) was “marked tubular degeneration/necrosis; also recorded: marked presence of tubular casts; also recorded: moderate findings, both in two parameters” and the MIC [4] was 4 µg/mL (≈ 3.72 µM). It also gave an MIC [5] of 128 µg/mL (≈ 119 µM), an MIC [6] of 2 µg/mL (≈ 1.86 µM) and an MIC [7] of 2 to 4 µg/mL. For the same molecule, the MIC [8] was 2 µg/mL (≈ 1.86 µM), the MIC [9] was 32 µg/mL (≈ 29.7 µM) and the AUC ([10]; 36 mg/kg/day, AUCs, dosed at 36 mg/kg/d, day 1) was 239 µg·h/mL. It also gave an AUC ([10]; iv, 8 mg/kg, AUCs 0-8 h, after infusion of 8 mg/kg, day 1) of 108 µg·h/mL, an AUC ([10]; iv, 8 mg/kg, AUCs 0-8 h, after infusion of 8 mg/kg, day 7) of 137 µg·h/mL and an AUC ([10]; iv, 36 mg/kg/day, AUCs, dosed at 36 mg/kg/d, day 7) of 302 µg·h/mL. The dose excreted ([10]; female, iv, 36 mg/kg/d, urinary recoveries (0-8 h urine collection), 36 mg/kg/d, day 1, each animal) was 15.4% and the MIC [11] was 4 µg/mL (≈ 3.72 µM).
With `CO[C@H]1/C=C/O[C@@]2(C)Oc3c(C)c(O)c4c(O)c(c(/C=N/N5CCN(C)CC5)c(O)c4c3C2=O)NC(=O)/C(C)=C\C=C\[C@H](C)[C@H](O)[C@@H](C)[C@@H](O)[C@@H](C)[C@H](OC(C)=O)[C@@H]1C` [rifampin] the MIC [12] was 4 µg/mL (≈ 4.86 µM), the MIC [13] was 16 µg/mL (≈ 19.4 µM) and the MIC [14] was 8 µg/mL (≈ 9.72 µM). It also gave an MIC [15] of 8 µg/mL (≈ 9.72 µM), an MIC [16] of 4 µg/mL (≈ 4.86 µM) and an MIC [17] of 16 µg/mL (≈ 19.4 µM). For the same molecule, the MIC [18] was 64 µg/mL (≈ 77.8 µM), the MIC [19] was 32 µg/mL and the MIC [20] was 32 µg/mL (≈ 38.9 µM). For the same molecule, the MIC [21] was 8 µg/mL (≈ 9.72 µM) and the MIC [22] was 4 µg/mL (≈ 4.86 µM).
